Experimental data published in patent US11980633B2, “Method for treating cancer using a combination of DNA-damaging agents and DNA-PK inhibitors” (Vertex Pharmaceuticals Incorporated, priority 2016, dated 2024).

How the values were obtained:
[1] = test system: pKAP1 and pH2AX levels in DU4475 breast cancer cells; assay: pKAP1 and pH2AX immunoblot, Compound B-2 and doxorubicin in DU4475 breast cancer cells; format: cell-based, human; details: for pH2AX level, max enhancement vs doxorubicin alone: at 12 h
Method: Materials and Methods. The human cancer cell lines A549 (CCL-185), DU4475 (HTB-123), MDA-MB-436 (HTB-130), and MDA-MB-468 (HTB-132) were obtained from American Type Culture Collection (ATCC; Manassas, VA). A 10 mM stock solution of Compound B-1 or Compound B-2 was prepared in DMSO and stored at −20° C. Etoposide and doxorubicin were purchased from Sigma-Aldrich (St. Louis, MO).
The A549 human lung cancer cell line was purchased from ATCC and was cultured in DMEM supplemented with 10% fetal bovine serum, 1× non-essential amino acids and 1× Penicillin/Streptomycin (complete medium). Cells were maintained at a subconfluent state by passaging every 2-3 days. Human breast cancer cells lines DU4475, MDA-MB-436, and MDA-MB-468 were purchased from ATCC and cultured in DMEM supplemented with 10% fetal bovine serum, 1× Glutamax and Penicillin/Streptomycin. Cells were maintained at a subconfluent state by passaging every 2-3 days.
Compound B-1 and Compound B-2 used in these experiments were not prepared as a co-crystals.
Breast cancer cell lines grown in 24-well (Costar, catalog #3526) or 6-well (Costar, catalog #3516) tissue culture plates to 70-80% confluence were pre-incubated with 1 μM Compound B-2 or DMSO for 15 min. Doxorubicin was added to a final concentration of either 100 nM or 500 nM from a 1000× stock prepared in DMSO. Cells were then incubated for the indicated amount of time and harvested for analysis.
Cell Lysis and Western Blot Analysis. Cells treated with Compound B-1 or Compound B-2 in combination with chemotherapeutic agents were washed once with ice-cold PBS and then dissolved in 150 μL/well 2×SDS-PAGE sample buffer, transferred to microfuge tubes, and heated in a 105° C. heat block for 5 min for immunoblotting. A 15-μL aliquot of each SDS-PAGE sample was loaded onto 12-lane 4 20% Tris-Glycine gels and the gels were run at 125v constant voltage until the dye front reached the bottom (approximately 2 h). Following electrophoresis, separated proteins in the gels were transferred to a nitrocellulose membrane. Transfer was carried out for 2 h at 1.5 A constant current in a cold room using a Hoefer transfer apparatus (Model TE42 or TE62, Hoefer Inc, Holliston, MA) according to manufacturer's instructions. Following transfer, nitrocellulose membranes were incubated with blocking buffer for 1 h at room temperature. The nitrocellulose membranes were cut and the bottom halves were incubated overnight with 2 primary antibodies, anti-pH2AX (1/1000) and anti-total H2AX (1/1000). After washing, the appropriate fluorescently labeled secondary antibodies were added to the membranes and then imaged with pH2AX on the 800 (green) channel and total H2AX on the 700 (red) channel. The top halves of the membranes were probed sequentially for pKAP1 (1/1000) on the 700 (red) channel and then probed for total KAP1 (1/1000) and GAPDH (1/2500) on the 800 (green) channel. Image acquisition was conducted using an Odyssey fluorescent imaging system (Li-Cor Biosciences; Lincoln, NE).
Compound B-2 and doxorubicin combination in breast cancer cell lines in culture. To examine the effect of DNA-PK inhibition on pKAP1 and pH2AX in vitro, DU4475 breast cancer cells were pre-incubated with 1 μM Compound B-2 for 15 min, followed by addition of 100 nM or 500 nM doxorubicin. Cells were harvested at various time points following doxorubicin addition and analyzed for levels of pKAP1 and pH2AX by immunoblotting.

[2] = test system: pKAP1 and pH2AX levels in A549 cells; assay: pH2AX and pKAP1 immunoblot, Compound B-1 and etoposide in A549 lung cells; format: cell-based, human; details: 3 μM Compound B-1 + 10 μM etoposide; at 8 h
Method: A 15-μL aliquot of each SDS-PAGE sample was loaded onto 12-lane 4 20% Tris-Glycine gels and the gels were run at 125v constant voltage until the dye front reached the bottom (approximately 2 h). Following electrophoresis, separated proteins in the gels were transferred to a nitrocellulose membrane. Transfer was carried out for 2 h at 1.5 A constant current in a cold room using a Hoefer transfer apparatus (Model TE42 or TE62, Hoefer Inc, Holliston, MA) according to manufacturer's instructions. […]

## [2H]c1nc(C)nc([2H])c1-c1cc(NC[C@@H](C)c2cccc3c(C(=O)NC)ccnc23)ncn1 [Compound B-2]
[1]; 1 μM Compound B-2 + 100 nM doxorubicin, at 12-24 h
  pKAP1 level, max enhancement vs doxorubicin alone: 37-42 fold
[1]; 1 μM Compound B-2 + 100 nM doxorubicin
  pH2AX level, max enhancement vs doxorubicin alone: 2 fold
[1]; 1 μM Compound B-2 + 500 nM doxorubicin, at 8 h
  pKAP1 level, max enhancement vs doxorubicin alone: 19 fold
[1]; 1 μM Compound B-2 + 500 nM doxorubicin
  pH2AX level, max enhancement vs doxorubicin alone: 1.6 fold

## CNC(=O)c1ccnc2c([C@H](C)CNc3cc(-c4cnc(C)nc4)ncn3)cccc12 [Compound B-1]
[2]
  pH2AX level, max increase as compared to etoposide treatment alone: 2 fold
  pKAP1 level, max increase as compared to etoposide treatment alone: 7 fold
